Data set [1] is described as follows: Discoloration of CBD solutions and formulations on standing. In kind it is physicochemical. The conditions noted are these: end of day. The text has this: The CBD2 material dissolved like the CBD1 therefore the CBD2 is CBD without the discoloration properties of CBD1.
For data set [2] the following is noted: in ethanol, reported value; cited from earlier work.
In data set [3] the test system is ovalbumin-induced airway obstruction. The conditions noted are these: 1 mg/kg i.v., sensitized guinea-pigs; cited from earlier work.
The next data set has as its system anandamide. The conditions noted are these: rat basophilic leukemia cells; cited from earlier work.
Data set [4] deals with T1, human vanilloid receptor type 1 (VR1) (Homo sapiens, UniProt Q8NER1).
T1 construct: expressed in transfected cells; host or cells: HEK cells transfected with hVR1 (HEK-hVR1)
T1 sequence (Q8NER1 whole entry): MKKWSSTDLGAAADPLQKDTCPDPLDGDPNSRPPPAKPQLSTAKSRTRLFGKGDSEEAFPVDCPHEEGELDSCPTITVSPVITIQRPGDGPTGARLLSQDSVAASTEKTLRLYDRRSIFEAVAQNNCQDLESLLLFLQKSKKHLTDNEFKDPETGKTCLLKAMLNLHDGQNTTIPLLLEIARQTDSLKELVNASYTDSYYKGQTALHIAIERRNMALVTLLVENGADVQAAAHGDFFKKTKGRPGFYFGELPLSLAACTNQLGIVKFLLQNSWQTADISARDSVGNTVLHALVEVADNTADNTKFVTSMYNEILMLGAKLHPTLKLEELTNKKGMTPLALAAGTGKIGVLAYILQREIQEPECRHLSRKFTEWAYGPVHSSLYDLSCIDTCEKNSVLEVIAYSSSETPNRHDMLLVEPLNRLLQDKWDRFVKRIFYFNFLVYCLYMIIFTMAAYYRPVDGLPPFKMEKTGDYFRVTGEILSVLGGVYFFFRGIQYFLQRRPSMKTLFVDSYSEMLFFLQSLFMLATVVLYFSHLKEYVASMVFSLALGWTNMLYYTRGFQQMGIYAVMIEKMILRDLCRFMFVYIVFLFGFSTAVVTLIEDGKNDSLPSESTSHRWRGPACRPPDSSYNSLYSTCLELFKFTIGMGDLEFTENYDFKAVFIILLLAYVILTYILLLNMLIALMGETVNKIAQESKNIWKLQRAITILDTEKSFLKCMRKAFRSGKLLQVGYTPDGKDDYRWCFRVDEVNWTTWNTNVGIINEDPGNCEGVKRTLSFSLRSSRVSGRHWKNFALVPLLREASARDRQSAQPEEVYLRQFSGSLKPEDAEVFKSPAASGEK
The conditions noted are these: HEK-hVR1 transfected cells; cited from earlier work.

A short description of data set [5]: Solubility of CBD in the Franz cell Receptor Fluid. In kind it is physicochemical. The conditions noted are these: aqueous with cosolvent or surfactant or cyclodextrin; PBS, 0.01 wt % NaN3, 4 wt % hydroxypropyl-β-cyclodextrin, 1 wt % Brij O20.
A short description of data set [6]: Solubility of CBD in solvents (weight to weight). In kind it is physicochemical. The method, then: First, the solubility of cannabidiol (CBD) was assessed. The powder looked granulated under the microscope. […] The conclusions from the solubility studies were that OA and IPA were very good solvents and it was surprising that IPA was so much better than ethanol.
Solubility studies: CBD dissolved at the 10% level in AE and barely 9.5% in IPM. Further exploration was not conducted due to the small amount of drug API available for non-GMP work. CBD is soluble greater than 10% but probably not in excess of 20%, as the time to dissolve additional CBD was taking considerably longer.

Data set [7] relates to cardiac inflammation produced by doxorubicin. The conditions noted are these: 5 mg/kg i.v. once daily for 4 weeks, rats; cited from earlier work.

`C=C(C)[C@@H]1CCC(C)=C[C@H]1c1c(O)cc(CCCCC)cc1O` [CBD1]: the discoloration of solution entry in data set [1] is “colored by the end of the day”.
For `C=C(C)[C@@H]1CCC(C)=C[C@H]1c1c(O)cc(CCCCC)cc1O` [CBD2], the discoloration of solution entry in data set [1] is “None of the CBD2 solutions were colored at the end of day 1”.
A word on the solubility: it is the concentration that dissolves in the medium under given conditions. For the compound `C=C(C)C1CCC(C)=CC1c1c(O)cc(CCCCC)cc1O` (stereo not drawn) [CBD, 2-[3-methyl-6-(1-methylethenyl)-2-cyclohexen-1-yl]-5-pentyl-1,3-benzenediol], the “reported solubility of CBD” value in data set [2] is on record as 3.5%. Further, the “effect on ovalbumin-induced airway obstruction” value in data set [3] is “attenuated ovalbumin-induced airway obstruction”. For the same compound, the inhibition of anandamide result in the data set with anandamide was “inhibit anandamide”. For the same compound, the “stimulation of VR1” value in data set [4] is listed as “maximum effect similar in efficacy to that of capsaicin”. In data set [5], this compound had a solubility of more than 50 µg/mL. For the same compound, the “solubility (weight to weight) of CBD” value is 6-7% in data set [6] (in ethanol); 3-4% in data set [6] (in hexamethyldisiloxane (HDS)); “greater than 14%” in data set [6] (in isopropyl alcohol (IPA)); 3-4% in data set [6] (in mineral oil); “greater than 8%” in data set [6] (in oleyl alcohol (OA), did not go higher in studies); 6-7% in data set [6] (in propylene glycol (PG)). The “solubility of CBD” value in data set [6] (in isopropyl myristate (IPM)) is given as approximately 9.5%. The “effect on cardiac inflammation produced by doxorubicin” value in data set [7] is “attenuated cardiac inflammation”.

Source of the values: patent US20210401768A1, “FORMULATIONS OF CANNABINOIDS FOR THE TREATMENT OF DERMATITIS AND INFLAMMATORY SKIN DISEASES” (Botanix Pharmaceuticals Ltd., priority 2017, published 2021).
